From PubChem BioAssay (NCI) come the findings set out here.

What all share (assay): NCI-60 cell line screen, 48 h
Experiment [1] deals with CCRF-CEM leukemia.
Experiment [2] deals with SR leukemia.
Experiment [3] concerns A549 NSCLC.
Experiment [4] deals with LOX IMVI melanoma.
Experiment [5] concerns HCT-116 colon.
Experiment [6] has as its system A498 renal.
The subject of experiment [7] is RXF 393 renal.
Experiment [8] deals with T-47D breast.
For experiment [9], the system named is BT-549 breast.
Experiment [10] has as its system HS 578T breast.

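Assay format: 96-well plates, 48-hour exposure. The concentration for 50% growth inhibition is given as GI50. The concentration for full growth arrest is given as TGI.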

As for `CC1(C)C=C(N2CCN(C3=CC(C)(C)NC(C)(C)C3)CC2)CC(C)(C)N1`, the TGI in experiment [1], in [2], in experiment [3], in [4], in experiment [5] and in experiment [6] was above 100 µM each time.
`CC(O)(c1ccc(OCCC[N+](C)(C)C)cc1)C(C)(O)c1ccc(OCCC[N+](C)(C)C)cc1` (configuration not stated): the TGI in experiment [1], in experiment [3], in [4], in experiment [5], in experiment [7] and in experiment [6] was above 100 µM each time.
For `CSC(=NC(=O)c1ccccc1)SCCSC(=NC(=O)c1ccccc1)SC`, the TGI in [1], in experiment [3], in experiment [4], in experiment [5], in experiment [7] and in experiment [6] was above 100 µM throughout.
As to `CN(CCc1ccccn1)/[N+]([O-])=N/O` (tested in a mixture with another compound), the TGI in experiment [1], in experiment [2], in experiment [3], in experiment [5] and in [7] was above 100 µM in each case.
With `CCCCCCCCC1C(C)c2c([nH]c3ccccc23)C2C(=O)N(c3ccccc3)C(=O)C21` (configuration not stated), the TGI came out at 7.09 µM in experiment [1]; 38 µM in [3]; 12.5 µM in [5]; 6.84 µM in experiment [7]; 36.9 µM in experiment [6].
With `COC(=O)/C=C(C)/C=C/c1c(C)c(C(C)=O)c(C)n1C`, the TGI in experiment [1], in experiment [3], in experiment [4], in experiment [5] and in experiment [6] was above 100 µM throughout.
As for `CCc1cc2c(Nc3ccccc3)c3c(nc2s1)CCCC3`, the TGI in [1] was above 100 µM; in experiment [2] it was 47.2 µM; in [3], above 100 µM; in experiment [4], 42 µM; in experiment [5], above 100 µM; in experiment [7] it was above 100 µM. In [6], the TGI is above 100 µM.
In the case of `CCOC(=O)Nc1cc2c(c(N)n1)N=C(c1ccccc1)CN2`, the GI50 in [1], in experiment [3], in [4] and in experiment [5] was below 0.0001 µM each time. Further, the TGI in [2] was above 100 µM; in experiment [8], above 90.5 µM; in experiment [3], 18.1 µM; in experiment [4], 32.9 µM; in [7], 29.2 µM; in experiment [6], 22.2 µM.
Take `CC(/C=C1\CCC(CN(C)C)C1=O)c1cccc(Br)c1` (configuration not stated): the TGI is 11.4 µM in experiment [1]; above 96.2 µM in experiment [3]; 31 µM in [5]; 26.5 µM in experiment [7]; above 58.5 µM in [6].
Consider `COc1cc(C(=O)c2cnc(-c3ccc4cc[nH]c4c3)[nH]2)cc(OC)c1OC`, for which the GI50 in experiment [9] was 0.0631 µM; in experiment [1] it was 0.0374 µM; in experiment [2] it was 0.0302 µM; in experiment [3], 0.0523 µM; in experiment [4], 0.105 µM; in experiment [5] it was 0.0332 µM. In addition, the GI50 in experiment [10] is 0.0461 µM; in experiment [6], 0.0136 µM. For the same compound, the TGI was 3.12 µM in [9]; above 44.6 µM in experiment [1]; 23.8 µM in experiment [2]; 11.7 µM in [3]; 1.98 µM in experiment [4]; 2.23 µM in [5]. Further, the values for the TGI in experiment [10] and in experiment [6] were above 86.9 µM and 0.0788 µM, respectively.
Take `CCCCCCCCCCCCCC(=O)NO`: the TGI was 33.1 µM in [9]; 6.46 µM in experiment [1]; above 100 µM in [2]; 42.9 µM in [3]; 15.5 µM in experiment [4]; above 94.9 µM in experiment [5]. The TGI in experiment [7] is 19 µM; in experiment [6], 63.2 µM.
On to `CN(C)c1ccc2cc3c(cc2c1)Oc1ccccc1N3.[Cl][Zn][Cl]`, for which the GI50 in [9] was 14.4 µM; in experiment [1] it was 3.26 µM; in experiment [2], 3.15 µM; in experiment [3], 20.9 µM; in [4], 1.6 µM; in experiment [5], 2.04 µM. Further, the values for the GI50 in [7], in experiment [10] and in experiment [6] were 3.28 µM, 24.7 µM and 16.9 µM, respectively. Also, the TGI was 27.7 µM in experiment [9]; 9.71 µM in experiment [1]; above 100 µM in experiment [2]; 51.5 µM in experiment [3]; 3.22 µM in experiment [4]; 4.34 µM in experiment [5]. In addition, the TGI is 9.01 µM in [7], above 100 µM in [10] and 34.7 µM in [6].
`CCCc1nn(C)c(CCC(=O)N(Cc2ccccc2)Cc2ccccc2)c1CC`: the TGI in experiment [1], in experiment [3], in experiment [4], in experiment [5], in [7] and in experiment [6] was above 100 µM throughout.
Regarding `CCC1=CCC(P(=O)(c2ccccc2)c2ccccc2)CC1C` (configuration not stated), the TGI in experiment [1] is above 100 µM; in experiment [3] it was above 100 µM; in [4] it was above 100 µM; in experiment [5] it was 63.8 µM; in [7], above 100 µM; in experiment [6] it was above 100 µM.
On to `Cc1ccc(-c2nc3ccccc3c(=O)n2NC2OC(CO)C(O)C(O)C2O)cc1` (configuration not stated), for which the TGI in experiment [1], in [3], in [5] and in experiment [6] was above 100 µM in each case.
On to `CC[C@@]1(O)C(=O)OCc2c1cc1n(c2=O)Cc2cc3cccc(N)c3nc2-1`, for which the GI50 in [1] was 1.07 µM; in experiment [2], 0.478 µM; in experiment [3], 7.32 µM; in [4] it was 4.19 µM; in [5] it was 16.8 µM; in experiment [7], 7.1 µM. In addition, in experiment [6], the GI50 is 7.17 µM. The TGI in [1] was above 100 µM; in [3], above 100 µM; in experiment [4], 37.2 µM; in experiment [5], above 100 µM; in [7] it was 94.7 µM; in experiment [6], 60.3 µM.
With `Cc1cc(=O)n2c(cc3cccccc32)n1`, the TGI in [1], in [2], in experiment [3], in [4], in [7] and in [6] was above 100 µM in each case.
Turning to `C[C@H]1[C@H](C)CC[C@]2(C(=O)O)CCC3(COC(=O)/C=C/c4ccc(O)cc4)C(=CCC4[C@@]5(C)CC[C@H](O)C(C)(C)C5CC[C@]43C)[C@H]12` (some centres not stated), the TGI was 17.3 µM in [1]; 64.3 µM in experiment [2]; 10.3 µM in experiment [3]; 18.3 µM in experiment [4]; 14.2 µM in [5]; 23.5 µM in experiment [7]. The same compound returned a TGI in experiment [6] of 15.3 µM.
Turning to `O=C(CCN1CCCC1)Nc1ccc2c(Nc3ccc(Br)cc3)c3ccccc3nc2c1`, the GI50 in experiment [9] was 1.44 µM; in experiment [1], 0.494 µM; in experiment [2], 0.288 µM; in experiment [4] it was 1 µM; in [7], 1.23 µM; in experiment [6], 1.7 µM. Further, the TGI is 3 µM in experiment [9]; 2.83 µM in [1]; 2.58 µM in experiment [2]; 2.24 µM in [4]; 2.57 µM in [7]; 5.82 µM in experiment [6].
`COc1ccccc1/C=C1\CCC(CN2CCOCC2)C1=O` (configuration not stated): the TGI is 29.8 µM in experiment [9]; above 21.3 µM in [1]; 5.7 µM in experiment [2]; 45 µM in [3]; 15.7 µM in [4]; 22.9 µM in [5]. Further, the results for the TGI in [7], in [10] and in [6] were 30.6 µM, above 100 µM and 32.4 µM, respectively.
As for `CC(Oc1ccc2c(=O)cc(-c3ccccc3)oc2c1)C(=O)O` (configuration not stated), the TGI in experiment [1], in experiment [2], in experiment [3], in experiment [4], in experiment [5] and in experiment [7] was above 100 µM in each case. This compound returned a TGI in [6] above 100 µM.
Consider `CC(=O)OC(C)(C)C[N+](=O)[O-]`, for which the TGI in [1], in experiment [2], in experiment [3], in experiment [4], in [5] and in experiment [7] was above 100 µM in each case.
For `c1ccc(N2CCN(CCCN3CCc4c([nH]c5ccccc45)C3c3cccnc3)CC2)cc1` (configuration not stated), the TGI in experiment [1] is above 100 µM; in [2] it was above 71.1 µM; in [3], above 100 µM; in experiment [4] it was above 100 µM; in [5], above 100 µM; in [7], above 100 µM. Also, the TGI in experiment [6] was above 100 µM.
As to `Cl.[O-]c1cccc2cccnc12.[O-]c1cccc2cccnc12.[O-]c1cccc2cccnc12.[O-]c1cccc2cccnc12.[Ti+4]`, the TGI in [9] was above 100 µM; in experiment [3], 12 µM; in experiment [4] it was above 88.9 µM; in experiment [7], 2.13 µM; in experiment [10], above 100 µM; in experiment [6], 21.7 µM. In addition, the GI50 in experiment [1] was 0.291 µM; in [3], 0.89 µM; in experiment [4] it was 1.69 µM; in experiment [5], 0.355 µM; in experiment [7] it was 0.319 µM; in experiment [10], above 100 µM. Also, the GI50 in [6] was 8.24 µM.
With `CCOP(=O)(OCC)C(NC(c1ccccc1)c1ccccc1)c1ccsc1` (configuration not stated), the GI50 in experiment [9] was 27.5 µM; in [2], 23 µM; in experiment [3], 24.7 µM; in [10] it was 29.7 µM; in experiment [6] it was 30.8 µM. Besides, the TGI turned out to be 52.3 µM in [9]; 98.2 µM in experiment [2]; 76.9 µM in [3]; 66.3 µM in [10]; 49.6 µM in experiment [6].
Consider `C=C1CCCC2OC(OC)CCC12` (configuration not stated), for which the TGI in experiment [1], in [2], in experiment [3], in [5], in [7] and in experiment [6] was above 100 µM in each case.
Turning to `O=C(CC1(O)C(=O)Nc2c(Cl)cc(Cl)cc21)c1ccc([N+](=O)[O-])cc1` (configuration not stated), the TGI in experiment [1] was above 84.3 µM; in experiment [2] it was above 80.6 µM; in [3], above 100 µM; in experiment [4], above 100 µM; in experiment [5], above 59.2 µM; in experiment [7], above 100 µM. Besides, the TGI in experiment [6] was above 67.9 µM.
In the case of `CCCCCCCCCCCCCP(=O)(OC)OC`, the TGI in experiment [1] turned out to be 38.8 µM; in experiment [2], 38.4 µM; in [3], 36.9 µM; in experiment [4], 35.3 µM; in experiment [5], 33.8 µM; in [7] it was 48.4 µM.
In the case of `O=C(CO)CC(=O)C(=O)Nc1cccc(C(F)(F)F)c1`, the TGI in experiment [2], in [3], in experiment [4] and in experiment [5] was above 100 µM throughout.
Turning to `C=C(C)C1CC=C(C)C(O)([C@@]2(O)C[C@H](C(=C)C)CC=C2C)C1` (some centres not stated), the TGI in experiment [1] is 46.3 µM; in experiment [2] it was 58.1 µM; in experiment [3], above 100 µM; in experiment [4], 26.9 µM; in experiment [5], 40.1 µM; in [7] it was 29.1 µM. In addition, in experiment [6], the TGI was 58.2 µM.
Consider `CCCCCC1CC=CC(NC(=O)OCc2ccccc2)C1/C=C/CCCC1OCCO1` (configuration not stated), for which the TGI in [1] was above 100 µM; in [3] it was above 100 µM; in experiment [4], above 100 µM; in experiment [5], above 100 µM; in experiment [7] it was above 100 µM; in [6], 98.7 µM.
With `CC(=O)CCn1[nH]c(=O)c(Cl)c(Cl)c1=O`, the TGI in experiment [1], in [2], in experiment [3], in experiment [4], in [5] and in experiment [7] was above 100 µM each time. The compound further yielded a TGI in [6] above 100 µM.
As for `O=C1C(c2ccccc2)=[N+]([O-])c2cc([N+](=O)[O-])ccc21`, the TGI in [1] was 40.5 µM; in experiment [3] it was above 100 µM; in [4], 28.6 µM; in [5], 53.4 µM; in experiment [7], 34.9 µM; in [6] it was above 100 µM.
